Source: patent US20260356819A1, “OXOISOINDOLINYL-SUBSTITUTED […] DERIVATIVE AND USE THEREOF” (GLUETACS THERAPEUTICS (SHANGHAI) CO., LTD., priority 2023, published 2026)
pIC50: −log10 of the molar value.

Columns and labels:
[1] = system: MM.1S cells; assay: Inhibition of proliferation of multiple myeloma cells MM.1S (cell viability assay, 96 h); format: cell-based, human; details: read-out: inhibitory activity (IC50) against tumor cells proliferation, MM.1S
Method: The tumor cells used herein were cultured in a cell culture medium listed in table 2 at 37 °C in an incubator with 5% CO2. Prior to experimentation, all cell lines used were correctly identified by STR profiling, and tested negative for Mycoplasma contamination using a Mycoplasma detection kit through routine screenings.
The IC50 values of the compounds of the present disclosure (including the compounds in Table 1, and Examples 1-498) were determined using the CellTiter-Meiluncell Luminescent Cell Viability Assay Kit from Dalian Meilun Biotech Co., Ltd. The detailed procedure is as follows: Tumor cells were seeded in 96-well cell culture plates at the densities specified in Table 3. On the following day, the test compounds of the present disclosure were subjected to serial dilution. […] Subsequently, 0.5 μL of the test compound dilution was transferred into the 96-well plate containing the cells, with each well containing 100 μL of cell culture medium. […] Into the 96-well plate, the diluted test compounds and corresponding detection reagents were added, resulting in final test compound concentrations of 500 nM and 10 nM, respectively. The experimental procedure is described below using the diluted 2 μM test compound as an example.
0.5 μL of the aforementioned diluted compound of the present disclosure (including the compounds in Table 1, and Examples 1-498) was added to the seeded cells in 100 μL of medium, yielding a final test compound concentration of 10 nM. After the cells were treated with the compounds of the present disclosure for a specified period, the cell viability assay reagent was added to the culture medium according to the kit's instructions to determine cell viability. […] All controls were treated using the same procedure as the compounds of the present disclosure. The growth inhibition curves for the compounds of the present disclosure were plotted using Prism GraphPad software, and the IC50 values were calculated therefrom.

[2] = molecular target: T1, WEE1 (Homo sapiens, UniProt P30291+Q96SW2); assay: Western blot degradation of WEE1 in hPBMCs (24 h); format: cell-based; details: compounds at 50 nM and 500 nM
T1 construct: The supernatant was aspirated as the extracted total cell protein; endogenous in cells; host or cells: human peripheral blood mononuclear cells (hPBMCs)
T1 sequence (P30291 whole entry): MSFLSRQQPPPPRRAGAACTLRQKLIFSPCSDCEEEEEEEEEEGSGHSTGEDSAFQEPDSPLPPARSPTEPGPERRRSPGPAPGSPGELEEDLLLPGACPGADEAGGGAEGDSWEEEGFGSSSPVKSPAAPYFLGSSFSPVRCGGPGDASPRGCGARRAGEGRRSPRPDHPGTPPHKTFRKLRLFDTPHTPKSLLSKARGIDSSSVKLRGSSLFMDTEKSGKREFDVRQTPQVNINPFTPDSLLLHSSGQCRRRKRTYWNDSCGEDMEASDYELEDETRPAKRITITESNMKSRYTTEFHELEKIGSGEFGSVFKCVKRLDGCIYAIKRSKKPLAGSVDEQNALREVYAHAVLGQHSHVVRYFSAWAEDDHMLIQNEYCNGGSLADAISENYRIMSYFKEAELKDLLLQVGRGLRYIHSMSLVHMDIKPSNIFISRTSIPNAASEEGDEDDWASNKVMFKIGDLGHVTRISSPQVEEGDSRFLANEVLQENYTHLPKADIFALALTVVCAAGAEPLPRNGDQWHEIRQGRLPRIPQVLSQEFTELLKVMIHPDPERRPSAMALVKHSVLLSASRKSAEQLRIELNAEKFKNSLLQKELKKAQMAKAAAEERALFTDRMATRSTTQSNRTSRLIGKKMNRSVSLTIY
T1 sequence (Q96SW2 whole entry): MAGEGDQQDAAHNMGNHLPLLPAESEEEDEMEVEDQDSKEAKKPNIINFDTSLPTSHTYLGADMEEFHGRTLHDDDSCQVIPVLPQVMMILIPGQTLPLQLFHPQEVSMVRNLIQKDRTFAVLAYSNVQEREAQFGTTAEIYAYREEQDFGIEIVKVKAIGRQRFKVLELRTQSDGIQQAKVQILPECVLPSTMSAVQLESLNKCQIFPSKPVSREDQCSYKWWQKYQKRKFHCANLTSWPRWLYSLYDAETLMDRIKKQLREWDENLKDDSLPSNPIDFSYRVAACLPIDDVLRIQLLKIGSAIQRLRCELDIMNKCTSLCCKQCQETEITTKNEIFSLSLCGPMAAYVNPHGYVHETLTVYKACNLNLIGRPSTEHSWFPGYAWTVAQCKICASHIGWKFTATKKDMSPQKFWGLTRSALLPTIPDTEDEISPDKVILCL
T1 sequence (Q16531 whole entry partner): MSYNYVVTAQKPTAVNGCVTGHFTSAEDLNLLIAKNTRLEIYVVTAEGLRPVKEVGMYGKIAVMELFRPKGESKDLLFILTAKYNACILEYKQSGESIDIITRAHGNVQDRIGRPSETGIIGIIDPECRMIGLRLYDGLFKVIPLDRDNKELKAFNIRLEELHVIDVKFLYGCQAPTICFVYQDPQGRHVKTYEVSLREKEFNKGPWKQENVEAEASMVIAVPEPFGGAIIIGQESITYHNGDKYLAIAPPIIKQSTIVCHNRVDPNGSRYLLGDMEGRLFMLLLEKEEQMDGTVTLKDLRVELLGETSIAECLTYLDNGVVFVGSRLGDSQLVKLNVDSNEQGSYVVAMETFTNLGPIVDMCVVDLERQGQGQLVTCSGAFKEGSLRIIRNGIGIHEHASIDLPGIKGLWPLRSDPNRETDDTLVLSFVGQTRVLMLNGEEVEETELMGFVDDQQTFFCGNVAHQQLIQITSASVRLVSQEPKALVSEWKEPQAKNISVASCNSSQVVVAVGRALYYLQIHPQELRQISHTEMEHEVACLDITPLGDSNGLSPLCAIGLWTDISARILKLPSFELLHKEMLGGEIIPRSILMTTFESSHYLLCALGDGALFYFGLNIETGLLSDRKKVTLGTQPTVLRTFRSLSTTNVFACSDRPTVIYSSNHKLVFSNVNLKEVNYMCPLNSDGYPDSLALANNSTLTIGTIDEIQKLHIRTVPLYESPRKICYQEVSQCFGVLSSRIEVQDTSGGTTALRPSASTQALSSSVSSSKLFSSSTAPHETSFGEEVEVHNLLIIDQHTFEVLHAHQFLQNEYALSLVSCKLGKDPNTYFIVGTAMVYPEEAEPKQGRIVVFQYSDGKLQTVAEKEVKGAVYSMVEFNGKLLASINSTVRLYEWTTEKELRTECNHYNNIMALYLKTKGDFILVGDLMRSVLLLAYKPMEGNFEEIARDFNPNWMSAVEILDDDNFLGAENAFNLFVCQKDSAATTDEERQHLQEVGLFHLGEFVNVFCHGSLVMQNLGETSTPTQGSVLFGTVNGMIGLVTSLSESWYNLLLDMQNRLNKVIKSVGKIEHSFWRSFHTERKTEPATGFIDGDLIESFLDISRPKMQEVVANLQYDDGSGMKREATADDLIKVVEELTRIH
Summary of the method: (§1)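 hPBMCs (1×10^6 cells/mL) exposed to compound at 50 nM and 500 nM for 24 h, DMSO as reference. Lysates run on SDS-PAGE and immunoblotted. Band grayscale normalized to internal control gives % protein remaining; DC50 from fitted concentration-response of band intensity versus DMSO.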

[3] = molecular target: T2, IKZF1 (Homo sapiens, UniProt Q13422+Q96SW2); assay: Western blot degradation of IKZF1 in hPBMCs (24 h); format: cell-based; details: compounds at 50 nM and 500 nM
T2 construct: The supernatant was aspirated as the extracted total cell protein; endogenous in cells; host or cells: human peripheral blood mononuclear cells (hPBMCs)
T2 sequence (Q13422 whole entry): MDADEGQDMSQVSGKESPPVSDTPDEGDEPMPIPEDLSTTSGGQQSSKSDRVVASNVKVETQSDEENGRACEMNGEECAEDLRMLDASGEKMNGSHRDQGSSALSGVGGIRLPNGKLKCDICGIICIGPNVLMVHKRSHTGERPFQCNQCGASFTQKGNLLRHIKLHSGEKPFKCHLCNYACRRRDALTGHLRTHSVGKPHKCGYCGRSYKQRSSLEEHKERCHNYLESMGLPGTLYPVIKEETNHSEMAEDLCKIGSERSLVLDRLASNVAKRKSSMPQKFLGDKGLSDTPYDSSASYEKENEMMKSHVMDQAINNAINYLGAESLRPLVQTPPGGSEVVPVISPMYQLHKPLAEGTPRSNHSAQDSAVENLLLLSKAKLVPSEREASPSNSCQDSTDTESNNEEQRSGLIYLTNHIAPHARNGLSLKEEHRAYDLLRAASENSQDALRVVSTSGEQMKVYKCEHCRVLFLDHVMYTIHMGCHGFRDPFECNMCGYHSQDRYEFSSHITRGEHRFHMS
T2 sequence (Q96SW2 whole entry): as the sequence (Q96SW2 whole entry) above
T2 sequence (Q16531 whole entry partner): as the sequence (Q16531 whole entry partner) above
Summary of the method: as §1

[4] = molecular target: T3, IKZF2 (Homo sapiens, UniProt Q96SW2+Q9UKS7); assay: Western blot degradation of IKZF2 in hPBMCs (24 h); format: cell-based; details: compounds at 50 nM and 500 nM
T3 construct: The supernatant was aspirated as the extracted total cell protein; endogenous in cells; host or cells: human peripheral blood mononuclear cells (hPBMCs)
T3 sequence (Q9UKS7 whole entry): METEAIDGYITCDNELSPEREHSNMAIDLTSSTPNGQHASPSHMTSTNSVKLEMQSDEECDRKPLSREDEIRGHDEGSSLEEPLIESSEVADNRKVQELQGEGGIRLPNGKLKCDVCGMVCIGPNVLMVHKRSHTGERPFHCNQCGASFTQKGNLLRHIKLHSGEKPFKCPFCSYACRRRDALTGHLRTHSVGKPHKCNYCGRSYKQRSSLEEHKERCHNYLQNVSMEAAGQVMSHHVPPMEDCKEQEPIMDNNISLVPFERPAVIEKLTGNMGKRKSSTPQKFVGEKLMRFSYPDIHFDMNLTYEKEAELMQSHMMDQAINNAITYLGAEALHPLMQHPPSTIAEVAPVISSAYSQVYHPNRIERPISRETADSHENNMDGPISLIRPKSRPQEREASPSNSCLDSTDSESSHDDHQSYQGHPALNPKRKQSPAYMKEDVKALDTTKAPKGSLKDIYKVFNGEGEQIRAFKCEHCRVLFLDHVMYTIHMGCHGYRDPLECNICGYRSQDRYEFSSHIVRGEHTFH
T3 sequence (Q96SW2 whole entry): as the sequence (Q96SW2 whole entry) above
T3 sequence (Q16531 whole entry partner): as the sequence (Q16531 whole entry partner) above
Summary of the method: as §1

[5] = molecular target: T4, IKZF3 (Homo sapiens, UniProt Q96SW2+Q9UKT9); assay: Western blot degradation of IKZF3 in hPBMCs (24 h); format: cell-based; details: compounds at 50 nM and 500 nM
T4 construct: The supernatant was aspirated as the extracted total cell protein; endogenous in cells; host or cells: human peripheral blood mononuclear cells (hPBMCs)
T4 sequence (Q9UKT9 whole entry): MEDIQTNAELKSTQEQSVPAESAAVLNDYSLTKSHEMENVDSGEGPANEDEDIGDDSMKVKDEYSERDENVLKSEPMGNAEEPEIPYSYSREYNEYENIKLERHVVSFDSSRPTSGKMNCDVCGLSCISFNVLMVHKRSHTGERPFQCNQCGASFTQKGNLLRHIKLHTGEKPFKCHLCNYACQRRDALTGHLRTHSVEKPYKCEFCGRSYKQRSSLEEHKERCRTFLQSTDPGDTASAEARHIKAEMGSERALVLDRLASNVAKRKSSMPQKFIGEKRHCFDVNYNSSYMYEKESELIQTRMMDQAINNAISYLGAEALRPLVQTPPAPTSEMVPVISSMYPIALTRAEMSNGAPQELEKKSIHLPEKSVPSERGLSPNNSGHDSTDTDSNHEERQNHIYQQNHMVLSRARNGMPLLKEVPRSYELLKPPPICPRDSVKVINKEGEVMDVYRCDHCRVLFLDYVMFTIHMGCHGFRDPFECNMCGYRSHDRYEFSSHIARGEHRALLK
T4 sequence (Q96SW2 whole entry): as the sequence (Q96SW2 whole entry) above
T4 sequence (Q16531 whole entry partner): as the sequence (Q16531 whole entry partner) above
Summary of the method: as §1

[6] = molecular target: T5, CK1α (Homo sapiens, UniProt P48729+Q96SW2); assay: Western blot degradation of CK1α in hPBMCs (24 h); format: cell-based; details: compounds at 50 nM and 500 nM
T5 construct: The supernatant was aspirated as the extracted total cell protein; endogenous in cells; host or cells: human peripheral blood mononuclear cells (hPBMCs)
Summary of the method: as §1

[7] = molecular target: T6, GSPT1 (Homo sapiens, UniProt P15170+Q96SW2); assay: Western blot degradation of GSPT1 in hPBMCs (24 h); format: cell-based; details: compounds at 50 nM and 500 nM
T6 construct: The supernatant was aspirated as the extracted total cell protein; endogenous in cells; host or cells: human peripheral blood mononuclear cells (hPBMCs)
T6 sequence (P15170 whole entry): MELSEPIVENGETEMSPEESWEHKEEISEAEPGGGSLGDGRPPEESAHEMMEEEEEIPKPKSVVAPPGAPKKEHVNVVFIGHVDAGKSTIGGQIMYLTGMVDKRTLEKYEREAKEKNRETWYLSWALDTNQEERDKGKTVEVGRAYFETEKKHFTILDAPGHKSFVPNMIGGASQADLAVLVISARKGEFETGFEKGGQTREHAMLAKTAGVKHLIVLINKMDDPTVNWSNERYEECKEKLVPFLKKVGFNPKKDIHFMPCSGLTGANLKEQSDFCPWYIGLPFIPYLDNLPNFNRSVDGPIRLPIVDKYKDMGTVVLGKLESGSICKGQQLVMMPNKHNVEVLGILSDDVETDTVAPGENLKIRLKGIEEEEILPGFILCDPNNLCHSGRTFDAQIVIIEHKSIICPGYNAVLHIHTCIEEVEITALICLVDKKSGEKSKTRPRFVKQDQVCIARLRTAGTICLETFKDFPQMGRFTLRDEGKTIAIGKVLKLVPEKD
T6 sequence (Q96SW2 whole entry): as the sequence (Q96SW2 whole entry) above
T6 sequence (Q16531 whole entry partner): as the sequence (Q16531 whole entry partner) above
Summary of the method: as §1

Compound	pIC50 [1]	WEE1 substrate protein remaining % [2]	IKZF1 substrate protein remaining % [3]	IKZF2 substrate protein remaining % [4]	IKZF3 substrate protein remaining % [5]	CK1α substrate protein remaining % [6]	GSPT1 substrate protein remaining % [7]
Cc1ccc(Sc2ccccc2N2CCN(Cc3ccc4c(c3)CN(N3CCC(=O)NC3=O)C4=O)CC2)c(C)c1 [GT-04867, 1-(5-((4-(2-((2,4-dimethylphenyl)thio)phenyl)piperazin-1-yl)methyl)-1-oxoisoindolin-2-yl)dihydropyrimidine-2,4(1H,3H)-dione]	6.00 to 6.30	B (80%< substrate protein remaining % ≤100%)	A (0% ≤ substrate protein remaining % ≤80%)	B (80%< substrate protein remaining % ≤100%)	B (80%< substrate protein remaining % ≤100%)	B (80%< substrate protein remaining % ≤100%)	A (0% ≤ substrate protein remaining % ≤80%)
O=C1CCN(N2Cc3cc(CN4CC=C(c5ccoc5)CC4)ccc3C2=O)C(=O)N1 [GT-04875, 1-(5-((4-(furan-3-yl)-3,6-dihydropyridin-1(2H)-yl)methyl)-1-oxoisoindolin-2-yl)dihydropyrimidine-2,4(1H,3H)-dione]	6.30 to 6.52	A (0% ≤ substrate protein remaining % ≤80%)	B (80%< substrate protein remaining % ≤100%)	B (80%< substrate protein remaining % ≤100%)	B (80%< substrate protein remaining % ≤100%)	B (80%< substrate protein remaining % ≤100%)	A (0% ≤ substrate protein remaining % ≤80%)
N#Cc1ccc(N2CCN(Cc3ccc(COc4cccc5c4CN(N4CCC(=O)NC4=O)C5=O)cc3)CC2)c(F)c1 [GT-06132, 4-(4-(4-(((2-(2,4-dioxotetrahydropyrimidin-1(2H)-yl)-1-oxoisoindolin-4-yl)oxy)methyl)benzyl)piperazin-1-yl)-3-fluorobenzonitrile]	6.52 to 7.00						
O=C1CCN(N2C(=O)c3ccc(CN4CCN(c5nc(N6CCOCC6)nc6c5SCC6)CC4)cc3C2=O)C(=O)N1 [GT-08450, 2-(2,4-dioxotetrahydropyrimidin-1(2H)-yl)-5-((4-(2-morpholino-6,7-dihydrothieno[3,2-d]pyrimidin-4-yl)piperazin-1-yl)methyl)isoindoline-1,3-dione]		B (80%< substrate protein remaining % ≤100%)	B (80%< substrate protein remaining % ≤100%)	B (80%< substrate protein remaining % ≤100%)	B (80%< substrate protein remaining % ≤100%)	B (80%< substrate protein remaining % ≤100%)	A (0% ≤ substrate protein remaining % ≤80%)
O=C1CCN(N2C(=O)c3ccc(CN4CCN(c5nc6c(c(N7CCOCC7)n5)SCC6)CC4)cc3C2=O)C(=O)N1 [GT-08451, 2-(2,4-dioxotetrahydropyrimidin-1(2H)-yl)-5-((4-(4-morpholino-6,7-dihydrothieno[3,2-d]pyrimidin-2-yl)piperazin-1-yl)methyl)isoindoline-1,3-dione]		B (80%< substrate protein remaining % ≤100%)	B (80%< substrate protein remaining % ≤100%)	B (80%< substrate protein remaining % ≤100%)	A (0% ≤ substrate protein remaining % ≤80%)	A (0% ≤ substrate protein remaining % ≤80%)	B (80%< substrate protein remaining % ≤100%)
O=C1CCN(N2C(=O)c3ccc(CN4CCN(c5ncnc6ccsc56)CC4)cc3C2=O)C(=O)N1 [GT-08452, 2-(2,4-dioxotetrahydropyrimidin-1(2H)-yl)-5-((4-(thieno[3,2-d]pyrimidin-4-yl)piperazin-1-yl)methyl)isoindoline-1,3-dione]		A (0% ≤ substrate protein remaining % ≤80%)	A (0% ≤ substrate protein remaining % ≤80%)	B (80%< substrate protein remaining % ≤100%)	A (0% ≤ substrate protein remaining % ≤80%)	A (0% ≤ substrate protein remaining % ≤80%)	B (80%< substrate protein remaining % ≤100%)
O=C1CCN(N2C(=O)c3ccc(CN4CCN(c5nc(Cl)nc6ccsc56)CC4)cc3C2=O)C(=O)N1 [GT-08453, 5-((4-(2-chlorothieno[3,2-d]pyrimidin-4-yl)piperazin-1-yl)methyl)-2-(2,4-dioxotetrahydropyrimidin-1(2H)-yl)isoindoline-1,3-dione]		B (80%< substrate protein remaining % ≤100%)	A (0% ≤ substrate protein remaining % ≤80%)	B (80%< substrate protein remaining % ≤100%)	A (0% ≤ substrate protein remaining % ≤80%)	A (0% ≤ substrate protein remaining % ≤80%)	A (0% ≤ substrate protein remaining % ≤80%)
O=C1CCN(N2C(=O)c3ccc(CN4CCN(c5nc(N6CCOCC6)nc6ccsc56)CC4)cc3C2=O)C(=O)N1 [GT-08455, 2-(2,4-dioxotetrahydropyrimidin-1(2H)-yl)-5-((4-(2-morpholinothieno[3,2-d]pyrimidin-4-yl)piperazin-1-yl)methyl)isoindoline-1,3-dione]		B (80%< substrate protein remaining % ≤100%)	B (80%< substrate protein remaining % ≤100%)	B (80%< substrate protein remaining % ≤100%)	A (0% ≤ substrate protein remaining % ≤80%)	A (0% ≤ substrate protein remaining % ≤80%)	A (0% ≤ substrate protein remaining % ≤80%)
Cc1nc(C2=CCN(Cc3ccc4c(c3)C(=O)N(N3CCC(=O)NC3=O)C4=O)CC2)c2c(-c3ccccc3)csc2n1 [GT-08484, 2-(2,4-dioxotetrahydropyrimidin-1(2H)-yl)-5-((4-(2-methyl-5-phenylthieno[2,3-d]pyrimidin-4-yl)-3,6-dihydropyridin-1(2H)-yl)methyl)isoindoline-1,3-dione]		A (0% ≤ substrate protein remaining % ≤80%)	A (0% ≤ substrate protein remaining % ≤80%)	A (0% ≤ substrate protein remaining % ≤80%)	A (0% ≤ substrate protein remaining % ≤80%)	A (0% ≤ substrate protein remaining % ≤80%)	A (0% ≤ substrate protein remaining % ≤80%)
O=C1CCN(N2Cc3cc(CN4CCN(c5nc(N6CCNCC6)c6sccc6n5)CC4)ccc3C2=O)C(=O)N1 [GT-08949, 1-(1-oxo-5-((4-(4-(piperazin-1-yl)thieno[3,2-d]pyrimidin-2-yl)piperazin-1-yl)methyl)isoindolin-2-yl)dihydropyrimidine-2,4(1H,3H)-dione]		B (80%< substrate protein remaining % ≤100%)	B (80%< substrate protein remaining % ≤100%)	B (80%< substrate protein remaining % ≤100%)	B (80%< substrate protein remaining % ≤100%)	B (80%< substrate protein remaining % ≤100%)	A (0% ≤ substrate protein remaining % ≤80%)
